Patent US20220031840A1, “Method of Treatment” (HaemaLogix Pty Ltd, priority 2018, published 2022)

Experiments:
Assay type in all cases: in vivo, human
CCL27 = assay: Biomarker analysis: serum CCL27; conditions: adjusted for cytokine baseline differences
Experimental: (§1) Patient serum samples for biomarker analysis were collected approximately 30 minutes before infusion of kappamab and then at 6, 48, 192, and 1,080 hours after infusion for all patients. Samples were analysed in triplicate and serum levels of 48 human cytokines, chemokines, and growth factors were measured using the Bio-Plex Pro™ Human Cytokine 27-plex and 21-plex assays according to the manufacturer's recommendations (Bio-Rad, Carlsbad, Calif., USA; Cat No M10-0KCAF0Y, mg0-005KMII). Results were verified by repeating the 21-plex assay in triplicate and the samples were randomized across the assay plate. Pre-infusion samples were used as the baseline (t=0) for the analysis.
(§2) Multivariate analysis of the biomarker data was performed using R version 3.1.0 (2014-04-10) software (http://www.R-project.org/). Linear mixed effects modelling was completed using 1me4 (Bates et al. 2015). […]
(§3) To find significance between kappamab dose, time, and cytokine expression levels, we fitted a linear mixed-effects model that modelled cytokine fluorescence expression levels with fixed-effects terms for baseline cytokine fluorescence expression, kappamab dose (with 4 levels: 0.3, 1.0, 3.0, and 10 mg/kg), time (treated as factor with 5 levels), and cytokine with 48 levels, plus their interactions, with a random effect associated with patient (12 levels) and plex (2 levels). […]

CXCL10 = assay: Biomarker analysis: serum CXCL10; conditions: adjusted for cytokine baseline differences
Experimental: as §1, §2, §3

[1] = Pharmacokinetics: serum kappamab by ELISA
Text: The PK analysis was based on measurement of serum kappamab using an ELISA that was validated according to recommended guidelines. Briefly, immobilized human kappa Bence Jones protein (Bethyl, Sigma, USA) was used to capture kappamab. The captured kappamab was then detected using an AP-conjugated anti-human IgG (gamma chain specific; Sigma, Cat. No. H4522) followed by colour development with the AP substrate.

urine κFLC = assay: 24-hour urine κFLC (FreeLite assay)
Text: (§4) Serum FLC levels were quantified using the FreeLite™ assay (The Binding Site Group Ltd, Birmingham, UK). […] Twenty-four-hour urine collection for urine protein electrophoresis immunofixation, urine FLC measurement (FreeLite™ assay), and creatinine clearance were collected on the day of infusion and on Day 45.

[2] = tested on: macrophage inhibitory factor (MIF); assay: Biomarker analysis: serum MIF; conditions: adjusted for cytokine baseline differences
Experimental: as §1, §2, §3

serum λFLC = assay: Serum λFLC (FreeLite assay); conditions: throughout the study
Text: as §4

## kappamab: humanized form of K121 anti-KMA antibody; VH SEQ ID NO: 1, VL SEQ ID NO: 2
CCL27
  Change in serum concentration: dose-related decreases
CXCL10
  Change in serum concentration: dose-related decreases
[1]; 1.0 mg/kg single IV dose, N = 3, geometric mean
  Cmax: 20600 ng/mL
[1]; human, in vivo
  Manner of decline of serum kappamab after Cmax: biphasic manner
  Serum concentration at Day 30 relative to Cmax: 0.3-10 % of Cmax
  Volume of distribution (Vz), description: low and similar across ascending doses
[1]; human, in vivo, iv, 0.3 mg/kg
  AUC0-tz: 803 µg·h/mL
  AUC0-tz normalized for dose (mg/kg): 2678 µg·h/mL
  AUC0-∞: 901 µg·h/mL
  AUC0-∞ normalized for dose (mg/kg): 3003 µg·h/mL
  CL (apparent total body clearance): 7.99 mL/day/kg
  Cmax: 5440 ng/mL
  Vz (apparent volume of distribution during terminal phase): 0.114 L/kg
  t1/2 (apparent elimination half-life): 237 h
  tmax: 3.00 h
[1]; human, in vivo, iv, 1 mg/kg
  AUC0-tz: 3006 µg·h/mL
  AUC0-tz normalized for dose (mg/kg): 3006 µg·h/mL
  AUC0-∞ normalized for dose (mg/kg): 3079 µg·h/mL
  CL (apparent total body clearance): 7.79 mL/day/kg
  Vz (apparent volume of distribution during terminal phase): 0.0946 L/kg
  t1/2 (apparent elimination half-life): 202 h
  tmax: 4.00 h
[1]; human, in vivo, iv, 3 mg/kg
  AUC0-tz: 6864 µg·h/mL
  AUC0-tz normalized for dose (mg/kg): 2288 µg·h/mL
  AUC0-∞: 6927 µg·h/mL
  AUC0-∞ normalized for dose (mg/kg): 2309 µg·h/mL
  CL (apparent total body clearance): 10.4 mL/day/kg
  Cmax: 69900 ng/mL
  Vz (apparent volume of distribution during terminal phase): 0.120 L/kg
  t1/2 (apparent elimination half-life): 191 h
  tmax: 2.00 h
[1]; human, in vivo, iv, 10 mg/kg
  AUC0-tz: 22994 µg·h/mL
  AUC0-tz normalized for dose (mg/kg): 2299 µg·h/mL
  AUC0-∞: 23227 µg·h/mL
  AUC0-∞ normalized for dose (mg/kg): 2323 µg·h/mL
  CL (apparent total body clearance): 10.3 mL/day/kg
  Cmax: 219000 ng/mL
  Vz (apparent volume of distribution during terminal phase): 0.0770 L/kg
  t1/2 (apparent elimination half-life): 124 h
  tmax: 4.00 h
[1]; in vivo
  Detectability of kappamab in serum: could be detected at all dose levels (up to Day 30)
[1]; in vivo, iv
  Start of the apparent terminal elimination phase: ~7 days
  Time at which maximum serum concentrations were achieved: 2 to 4 h
Urine κFLC; Day 1, 8/12 patients
  Patients with a decrease in urine κFLC: 67%
Urine κFLC; Day 45 post infusion, 7/12 patients
  Patients with a decrease in urine κFLC: 58%
Urine κFLC; Patient 1, Day 1
  Urine κFLC: 144 mg/24 hours
  Urine κFLC percent change from baseline: −31%
Urine κFLC; Patient 1, Day 45
  Urine κFLC: 107 mg/24 hours
  Urine κFLC percent change from baseline: −49%
Urine κFLC; Patient 2, Day 1
  Urine κFLC: 1902 mg/24 hours
  Urine κFLC percent change from baseline: −27%
Urine κFLC; Patient 2, Day 45
  Urine κFLC percent change from baseline: −13%
Urine κFLC; Patient 2, Day 45, exceeds upper limit of quantitation
  Urine κFLC: > 2272 mg/24 hours
Urine κFLC; Patient 3, Day 1
  Urine κFLC: 1143 mg/24 hours
  Urine κFLC percent change from baseline: −15%
Urine κFLC; Patient 3, Day 45
  Urine κFLC: 5964 mg/24 hours
  Urine κFLC percent change from baseline: +343%
Urine κFLC; Patient 4, Day 1
  Urine κFLC: 24 mg/24 hours
  Urine κFLC percent change from baseline: +85%
Urine κFLC; Patient 4, Day 45
  Urine κFLC: 18 mg/24 hours
  Urine κFLC percent change from baseline: +38%
Urine κFLC; Patient 5, Day 1
  Urine κFLC: 31 mg/24 hours
  Urine κFLC percent change from baseline: −68%
Urine κFLC; Patient 5, Day 45
  Urine κFLC: 103 mg/24 hours
  Urine κFLC percent change from baseline: +6%
Urine κFLC; Patient 6, Day 1
  Urine κFLC: 38 mg/24 hours
  Urine κFLC percent change from baseline: −17%
Urine κFLC; Patient 6, Day 45
  Urine κFLC: 45 mg/24 hours
  Urine κFLC percent change from baseline: −2%
Urine κFLC; Patient 7, Day 1
  Urine κFLC: 390 mg/24 hours
  Urine κFLC percent change from baseline: +25%
Urine κFLC; Patient 7, Day 45
  Urine κFLC: 286 mg/24 hours
  Urine κFLC percent change from baseline: −8%
Urine κFLC; Patient 8, Day 1
  Urine κFLC: 34 mg/24 hours
  Urine κFLC percent change from baseline: +278%
Urine κFLC; Patient 8, Day 45
  Urine κFLC: 25 mg/24 hours
  Urine κFLC percent change from baseline: +178%
Urine κFLC; Patient 9, Day 1
  Urine κFLC: 49 mg/24 hours
  Urine κFLC percent change from baseline: −13%
Urine κFLC; Patient 9, Day 45
  Urine κFLC: 39 mg/24 hours
  Urine κFLC percent change from baseline: −30%
Urine κFLC; Patient 10, Day 1
  Urine κFLC: 13 mg/24 hours
  Urine κFLC percent change from baseline: −69%
Urine κFLC; Patient 10, Day 45
  Urine κFLC: 40 mg/24 hours
  Urine κFLC percent change from baseline: −5%
Urine κFLC; Patient 12, Day 1
  Urine κFLC: 297 mg/24 hours
  Urine κFLC percent change from baseline: −9%
Urine κFLC; Patient 12, Day 45
  Urine κFLC: 363 mg/24 hours
  Urine κFLC percent change from baseline: +11%
Urine κFLC; Patient 13, Day 1
  Urine κFLC: 166 mg/24 hours
  Urine κFLC percent change from baseline: +12%
Urine κFLC; Patient 13, Day 45
  Urine κFLC: 29 mg/24 hours
  Urine κFLC percent change from baseline: −80%
Urine κFLC; within each dose cohort
  Dose-related trend in urinary excretion of κFLC: no consistent dose-related trend
[2]
  Change in serum concentration: dose-related decreases
Serum λFLC
  Serum λFLC concentration: no apparent change
